# Test results from patent publication US12365672B2, “Compounds and their use for the treatment of alpha1-antitrypsin deficiency” (CENTESSA PHARMACEUTICALS (UK) LIMITED, priority 2019, dated 2025).
# Molecular target: T1, human Z A1AT (Homo sapiens, UniProt P01009, E366K)
# T1 construct: expressed in transfected cells; host or cells: HEK-Z cells (human embryonic kidney cell line)
# Experiment: A1AT cell secretion assay using HEK-Z cells (ELISA of supernatant)
# Type: cell-based
# Details: 48 h, A1AT in supernatant by ELISA
# Method: HEK-Z cells, a human embryonic kidney cell line stably transfected with the human Z A1AT gene, were plated into 96 well plates (3.0×10^5 cells/ml with 200 μl of media/well) overnight at 37° C. in a humidified atmosphere containing 5% CO2. Following incubation cells were washed with 200 μl serum-free media three times and media was replaced with treatments in quadruplicate using serum free media containing either vehicle, 10 μM suberanilohydroxamic acid (SAHA) or a compound of the invention (at concentrations of 10, 33, 100 and 333 nM) for 48 h in a 37° C. incubator in a final volume of 200 μl. At the end of the incubation step the supernatants were removed from the wells, centrifuged at 1000×g at 4° C. for 10 min and were assayed for human A1AT levels by ELISA (Human Serpin A1/α1-antitrypsin duo set ELISA, R& D Systems, DY1268) per manufacturer's instructions.
# Briefly, a 96 well plate was coated with human A1AT capture antibody overnight at room temperature (1:180 dilution from stock, 100 μl final volume/well). The capture antibody was then removed and wells washed three times with 300 μl wash buffer (0.05% Tween 20 in PBS) and then 200 μl reagent diluent ([…]) was incubated in each well for 1 h at room temperature. Diluted samples, standards (125, 250, 500, 1000, 2000, 4000 and 8000 pg/ml A1AT) or blanks were then added to each well in duplicate and the plates were covered with a plate sealer and left at room temperature for 2 h. At the end of the sample incubation step, samples were removed and all wells washed as previously and 100 μl detection antibody (1:180 dilution from stock) was added to each well and incubated for a further 2 h at room temperature. […] After which, 50 μl stop solution (2M H2SO4) was added and optical density (OD) of each well was read at 450 nm with 570 nm blank subtracted from each well using a microplate reader. A 4 parameter logistic curve was constructed using GraphPad Prism 7 and A1AT concentrations were determined in each sample by interpolation from a standard curve and multiplying by the appropriate dilution factor.
# T1 sequence (P01009 25-418 E366K): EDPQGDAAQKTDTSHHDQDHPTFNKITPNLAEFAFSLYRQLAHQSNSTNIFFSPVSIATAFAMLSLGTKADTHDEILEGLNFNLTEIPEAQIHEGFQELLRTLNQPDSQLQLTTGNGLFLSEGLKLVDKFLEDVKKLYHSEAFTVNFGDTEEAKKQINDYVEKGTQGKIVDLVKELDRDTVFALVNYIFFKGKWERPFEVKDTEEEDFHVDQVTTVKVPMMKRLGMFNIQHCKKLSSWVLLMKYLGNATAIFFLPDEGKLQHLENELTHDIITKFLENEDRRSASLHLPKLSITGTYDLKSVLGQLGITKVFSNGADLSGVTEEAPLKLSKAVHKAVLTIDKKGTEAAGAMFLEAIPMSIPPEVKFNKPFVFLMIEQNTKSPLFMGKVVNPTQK
row,SMILES,Median A1AT % increase over vehicle at 300 nM
1,"O=c1ccncn1Cc1ccc(-c2ncco2)cc1 [Example 1, 3-(4-(oxazol-2-yl)benzyl)pyrimidin-4(3H)-one]",180%
2,"O=c1cc[nH]c(=O)n1Cc1ccc(-c2ncco2)cc1 [Example 3, 3-(4-(oxazol-2-yl)benzyl)pyrimidine-2,4(1H,3H)-dione]",180%
3,"O=c1c2ccccc2ncn1Cc1ccc(-c2ncco2)cc1 [Example 2, 3-(4-(oxazol-2-yl)benzyl)quinazolin-4(3H)-one]",140%
